Measured values published in article PMC5575657, “Characterization and Expression Profiling of Camellia sinensis Cinnamate 4-hydroxylase Genes in Phenylpropanoid Pathways” (Genes, 2017).

Key:
Experiment in all cases: HPLC of p-coumaric acid formed in yeast culture
Format in all cases: cell-based
Details in all cases: 0.2 mM substrate fed to yeast culture, 28 °C, 1 h; product p-coumaric acid; empty vector control
[1] = biological target: T1, CsC4Hc (Camellia sinensis, UniProt A0A286QXW5)
T1 construct: gene C4Hc; cloning reverse primer keeps the stop codon
T1 sequence (A0A286QXW5 1-544): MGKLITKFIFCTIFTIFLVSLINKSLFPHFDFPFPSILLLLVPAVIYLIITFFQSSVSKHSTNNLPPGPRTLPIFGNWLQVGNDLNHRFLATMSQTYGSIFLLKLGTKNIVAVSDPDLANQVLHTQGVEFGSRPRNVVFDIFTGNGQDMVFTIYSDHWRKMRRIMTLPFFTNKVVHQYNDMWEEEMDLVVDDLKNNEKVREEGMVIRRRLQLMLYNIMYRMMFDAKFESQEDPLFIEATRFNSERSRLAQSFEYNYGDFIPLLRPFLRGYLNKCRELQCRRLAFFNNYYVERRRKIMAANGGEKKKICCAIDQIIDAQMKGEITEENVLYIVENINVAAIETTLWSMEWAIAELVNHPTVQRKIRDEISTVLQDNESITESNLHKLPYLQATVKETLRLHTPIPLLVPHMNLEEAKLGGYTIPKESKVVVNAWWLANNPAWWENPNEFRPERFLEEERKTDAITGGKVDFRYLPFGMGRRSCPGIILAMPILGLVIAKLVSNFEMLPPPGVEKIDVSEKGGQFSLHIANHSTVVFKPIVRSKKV

[2] = biological target: T2, CsC4Hb (Camellia sinensis, UniProt A0A286QXW8)
T2 construct: gene C4Hb; cloning reverse primer keeps the stop codon
T2 sequence (A0A286QXW8 1-505): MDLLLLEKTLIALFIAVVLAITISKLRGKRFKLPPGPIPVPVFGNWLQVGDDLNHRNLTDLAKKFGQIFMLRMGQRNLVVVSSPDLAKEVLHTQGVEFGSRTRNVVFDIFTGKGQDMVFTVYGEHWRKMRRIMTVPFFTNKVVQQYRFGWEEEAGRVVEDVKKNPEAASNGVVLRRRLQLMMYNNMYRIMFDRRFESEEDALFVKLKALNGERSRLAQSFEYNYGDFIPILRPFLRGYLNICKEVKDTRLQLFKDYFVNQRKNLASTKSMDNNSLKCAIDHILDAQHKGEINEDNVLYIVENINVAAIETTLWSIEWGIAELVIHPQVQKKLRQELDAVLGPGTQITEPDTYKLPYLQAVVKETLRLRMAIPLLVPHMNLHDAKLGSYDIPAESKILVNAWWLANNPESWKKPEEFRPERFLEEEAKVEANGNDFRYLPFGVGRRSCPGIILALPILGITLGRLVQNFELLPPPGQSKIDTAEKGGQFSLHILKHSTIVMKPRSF

[3] = biological target: T3, CsC4Ha (Camellia sinensis, UniProt A0A286QXW9)
T3 construct: gene C4Ha; cloning reverse primer keeps the stop codon
T3 sequence (A0A286QXW9 1-505): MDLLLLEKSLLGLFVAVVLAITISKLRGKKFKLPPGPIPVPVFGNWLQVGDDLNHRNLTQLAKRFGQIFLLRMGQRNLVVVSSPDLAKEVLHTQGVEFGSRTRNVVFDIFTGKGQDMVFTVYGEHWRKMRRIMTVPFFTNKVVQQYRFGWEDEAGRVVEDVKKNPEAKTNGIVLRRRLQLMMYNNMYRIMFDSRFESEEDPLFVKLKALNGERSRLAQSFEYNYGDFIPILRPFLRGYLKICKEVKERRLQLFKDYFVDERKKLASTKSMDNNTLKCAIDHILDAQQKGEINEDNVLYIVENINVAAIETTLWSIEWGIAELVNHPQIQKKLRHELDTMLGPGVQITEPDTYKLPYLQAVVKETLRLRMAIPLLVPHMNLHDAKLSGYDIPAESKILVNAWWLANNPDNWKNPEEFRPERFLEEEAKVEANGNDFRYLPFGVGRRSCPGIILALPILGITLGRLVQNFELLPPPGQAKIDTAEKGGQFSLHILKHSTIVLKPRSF

O=C(O)/C=C/c1ccccc1 [trans-cinnamic acid]
HPLC of p-coumaric acid formed in yeast culture [1]: three recombinant CsC4Hs are able to convert t-cinnamate to yield p-coumarate when expressed in yeast | HPLC of p-coumaric acid formed in yeast culture [2]: three recombinant CsC4Hs are able to convert t-cinnamate to yield p-coumarate when expressed in yeast | HPLC of p-coumaric acid formed in yeast culture [3]: three recombinant CsC4Hs are able to convert t-cinnamate to yield p-coumarate when expressed in yeast
